These results are taken from PMC5607274, “An iterative compound screening contest method for identifying target protein inhibitors using the tyrosine-protein kinase Yes” (Scientific Reports, 2017).

T1 sequence (P07947 2-543): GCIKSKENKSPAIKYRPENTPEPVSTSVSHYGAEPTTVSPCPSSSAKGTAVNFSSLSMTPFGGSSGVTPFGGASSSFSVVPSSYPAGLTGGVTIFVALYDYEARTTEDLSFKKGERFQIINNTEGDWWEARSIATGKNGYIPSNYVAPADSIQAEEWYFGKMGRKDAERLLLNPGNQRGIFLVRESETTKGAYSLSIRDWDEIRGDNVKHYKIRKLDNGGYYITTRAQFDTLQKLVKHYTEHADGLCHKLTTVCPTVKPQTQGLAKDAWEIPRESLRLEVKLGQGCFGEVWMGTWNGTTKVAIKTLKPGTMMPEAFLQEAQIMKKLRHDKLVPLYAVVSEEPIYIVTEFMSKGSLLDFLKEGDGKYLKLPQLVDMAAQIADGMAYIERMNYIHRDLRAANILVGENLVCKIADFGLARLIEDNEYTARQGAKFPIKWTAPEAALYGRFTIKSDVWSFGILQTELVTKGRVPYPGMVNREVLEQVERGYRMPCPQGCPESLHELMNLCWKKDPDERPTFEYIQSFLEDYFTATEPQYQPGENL

The test addresses T1, human recombinant Yes [a.a. 2–543 (end)] (Homo sapiens, UniProt P07947).
T1 construct: human recombinant Yes [a.a; 2–543 (end)]; purchased BPS Bioscience 40488
The test is described as follows: ADP-Glo kinase assay, inhibition rates of Yes phosphorylation activity (first and second screening). Conditions: first screening; mean of n = 4 wells; 10 μmol L−1 compound. Type of test: biochemical. The protocol:
All inhibitory assays of the phosphorylation activity of Yes were performed in accordance with the Promega Technical Manual for the ADP-Glo™ Kinase Assay (Fitchburg, WI, USA. Catalog number: V9102). The human recombinant Yes [a.a. 2–543 (end)] was purchased from BPS Bioscience (catalog number: 40488). The details of the assay protocol and reagent information are given elsewhere.
The screening was conducted in three steps consisting of the first screening, the second screening, and the IC50 determination, as can be illustrated in Fig. 1b. First, we determined the inhibition rates of the 1,991 compounds. Each compound was placed in 4 wells of a 384-well plate. In total, 80 compounds were assayed on one plate and the other wells were used for positive and negative controls. The compounds were randomly placed on plates so that compounds proposed by one group were not placed on a plate together. A mean of four inhibition rates for each compound was compared to criteria for the first screening. […] Second, the inhibition rates of the screened compounds were determined on one plate using the same procedure of the first screening, where compounds were dissolved from fresh powder. […] Screened compounds were then evaluated for their IC50 values.
Take `CCn1ncc2c(C(=O)NC(C)C)cc(-c3ccccc3)nc21` [Compound Z223848612]: the “First screening IR (inhibition rate)” value was 6%. `Cc1[nH]ncc1Nc1ccc2nccnc2n1` [Compound Z1182665660]: the “First screening IR (inhibition rate)” value was determined as 6%. Turning to `Cc1cc(N=C2C(=O)Nc3c(Cl)cc(Cl)cc32)ccc1Br` [Compound Z56849070], the “First screening IR (inhibition rate)” value is on record as 1%.

Consider `CC1=Nc2nc(N3CCCCC3)c(C#N)c3c4c(nc(c23)N1)N(c1ccc(C)cc1)C(=O)C4` [Compound Z55516559], for which the “First screening IR (inhibition rate)” value is on record as -13%. `O=C(NCc1ccnc(Oc2ccccc2)c1)c1ccc(OCc2cccnc2)cc1` [Compound Z424307182]: the “First screening IR (inhibition rate)” value is listed as -22%.

As for `COc1cc(C(=O)NCCc2ccc(-n3cccn3)cc2)ccc1C` [Compound Z223337292], the “First screening IR (inhibition rate)” value is 3%. For `O=C(Nc1cccc(C#Cc2cccs2)c1)C1CC2CCCC(C1)C2=O` (stereo not shown) [Compound Z271080962] the value was -2%. As to `Cc1ccc2nc(-c3ccc(Nc4nnc(Cc5csc(C)n5)s4)cc3)sc2c1` [Compound Z119992430], the “First screening IR (inhibition rate)” value amounted to 40%. Turning to `O=C(NCc1cccc(C(F)(F)F)c1)Nc1ccc(NC(=O)c2ccco2)cc1` [Compound Z412775872], the “First screening IR (inhibition rate)” value is on record as -5%. On to `C/C(=C/c1ccc2ncccc2c1)c1cnccn1` [Compound Z1728623559], for which the “First screening IR (inhibition rate)” value was found to be 2%. As for `O=C(OCCc1cn[nH]c1)c1ncoc1-c1ccco1` [Compound Z1463415737], the “First screening IR (inhibition rate)” value was 57%. Under `CC(c1ccc(F)c(F)c1)N(C)c1ncnc2c1cnn2C` (stereo not shown) [Compound Z328694928] stands -1%. For `Cc1cc(C(=O)Nc2ccc(N3CCNC(=O)C3)c(Cl)c2)c2ccccc2n1` [Compound Z421986674] the value was 7%. As for `CC1C/C(=C/c2ccc(C#N)cc2)c2nc3ccccc3c(C(=O)O)c2C1` (stereo not shown) [Compound Z46107862], the “First screening IR (inhibition rate)” value is -2%. Under `CC1CC(CNC(=O)c2cccc(O)c2)CN1Cc1ccccc1` (stereo not shown) [Compound Z1633590863] stands 1%; under `Cn1c2ccccc2n2c3ccccc3c(=O)c(C#N)c12` [Compound Z734296158], -2%. In the case of `Cc1cccc(NC(=O)CN2CCN(C(=O)CN3C(=O)Cn4c(cc5ccccc54)C3=O)CC2)c1C` [Compound Z826666316], the “First screening IR (inhibition rate)” value was -25%.

Consider `CC(C)(Oc1ccc(Cl)cc1)C(=O)Nc1n[nH]c(-c2ccc(F)cc2)n1` [Compound Z108548764], for which the “First screening IR (inhibition rate)” value came to 16%.

Regarding `O=C(CN1CCN(C(=O)c2cc(-c3ccccc3)nc3c2cnn3Cc2ccncc2)CC1)NC1CC1` [Compound Z109522106], the “First screening IR (inhibition rate)” value is recorded as 12%. Take `N#Cc1ccc(CN2CCN(Cc3c(-c4ccccc4)nc4sccn34)CC2)cc1` [Compound Z89137945]: the “First screening IR (inhibition rate)” value is listed as -31%. For `CN(C)c1nc(N)nc(CSCCC(=O)Nc2ccccc2)n1` [Compound Z327260972], the “First screening IR (inhibition rate)” value was -8%.

Consider `CCC1CCCCN1S(=O)(=O)c1cc(S(C)(=O)=O)ccc1Cl` (stereo not shown) [Compound Z355127288], for which the “First screening IR (inhibition rate)” value was determined as 7%. Under `O=C(CSc1nnc(-c2ccccc2F)n1CCc1ccccc1)c1ccc[nH]1` [Compound Z16427126] stands -9%. Take `O=C(NCCCN1CCCCC1)c1cc(-c2ccccc2)nc2c1cnn2Cc1ccncc1` [Compound Z167254296]: the “First screening IR (inhibition rate)” value was -28%. On to `CCN1CCN(c2nc3ccccc3nc2C(C#N)C(=O)NCCc2ccc(OC)c(OC)c2)CC1` (stereo not shown) [Compound Z56854281], for which the “First screening IR (inhibition rate)” value came to 38%. For `COC(=O)c1cc(-c2ccc(OC)cc2)nc2c1c(C)nn2CCC#N` [Compound Z328815354] the value was 24%; for `CNc1ccc(Nc2nccc(C(F)(F)F)n2)cn1` [Compound Z729056288], -20%.

Turning to `CCOc1ccc(-n2c(O)c3ccc(C(=O)N=C4N=c5ccccc5=N4)cc3c2O)cc1` [Compound Z27664836], the “First screening IR (inhibition rate)” value is recorded as -4%.

With `O=C(O)c1c2c(nc3ccccc13)/C(=C\c1ccc(Cl)c(Cl)c1)CCC2` [Compound Z46035759], the “First screening IR (inhibition rate)” value worked out at 0%. Under `COc1ccc(-c2cc(NC(=O)C3CCC(=O)N3)ccc2OC(F)F)cc1` (stereo not shown) [Compound Z70775126] stands -6%; under `CSc1sc(NC(=O)c2n[nH]c(C(C)C)c2Br)nc1C` [Compound Z1143428685], 3%. For the compound `CCN(CC)C(CNC(=O)C1CCN(c2ccc3nnc(C(F)(F)F)n3n2)CC1)c1ccccc1` (stereo not shown) [Compound Z237862822], the “First screening IR (inhibition rate)” value stood at 0%. Under `Cc1cc(COC(=O)c2cc(-c3ccc4c(c3)OCCO4)nc3c2cnn3C(C)C)on1` [Compound Z227321660] stands 48%; under `O=S(=O)(c1ccc(Br)cc1Cl)N1CCN(Cc2cn3ccccc3n2)CC1` [Compound Z89065969], -1%. For the compound `Cc1ccc(-c2noc(CN3CCN(Cc4nc5ccccc5c(=O)n4Cc4ccco4)CC3)n2)cc1` [Compound Z235827834], the “First screening IR (inhibition rate)” value came to 3%.

On to `CCOc1ccc(O)c(/C=C2\C(=O)Nc3ccc(Cl)cc32)c1` [Compound Z44304769], for which the “First screening IR (inhibition rate)” value is recorded as 23%.

With `N#CCCN(CCN1CCOCC1)Cc1cn[nH]c1-c1c(F)cccc1F` [Compound Z1470747510], the “First screening IR (inhibition rate)” value is reported as -6%. For `Cc1nn(C2CCS(=O)(=O)C2)c2nc(C3CC3)cc(C(=O)NCc3ccc4c(c3)OCO4)c12` (stereo not shown) [Compound Z60362928] the value was 5%. For the compound `CCC(NC(=O)c1cc(C)nc2c1cnn2C(C)C)c1ccc(C)cc1` (stereo not shown) [Compound Z203056244], the “First screening IR (inhibition rate)” value is recorded as -5%. In the case of `CC1CCCN(Cc2ccc(CNCC3CNc4ccnn4C3)cc2)C1` (stereo not shown) [Compound Z1097879141], the “First screening IR (inhibition rate)” value was -4%. For `Cc1ccnc(NC(=O)c2cc(-c3ccc(F)cc3)nc3onc(C)c23)c1` [Compound Z219812624] the value was -14%; for `CC(C)n1ncc2c(C(=O)N3CCN(CC(=O)N4CCCCC4)CC3)cc(-c3ccccc3)nc21` [Compound Z147118228], -5%. For `O=C1CN(c2nc(C(F)(F)F)nc3ccsc23)CCN1` [Compound Z370715174] the value was 26%. Under `O=P(/C=C(\Cl)c1ccccc1)(/C=C(/Cl)c1ccccc1)Nc1cccc(S(=O)(=O)NCc2ccco2)c1` [Compound Z56773378] stands -1%; under `CN(C(=O)c1ccc(NC(=O)C2CCCO2)cc1Cl)C1CCCCC1` (stereo not shown) [Compound Z738379554], 3%. As for `CCCOc1cc(/C=C2/C(=O)Nc3ccc(Cl)cc32)ccc1OC` [Compound Z44304730], the “First screening IR (inhibition rate)” value is 9%.

As for `CC(=O)c1ccc(N2CCN(CC(=O)c3cc(C)[nH]c3C)CC2)c(F)c1` [Compound Z238811284], the “First screening IR (inhibition rate)” value is 1%. For `COc1cc(/C=C2/CC(C)Cc3c2nc2ccccc2c3C(=O)O)ccc1O` (stereo not shown) [Compound Z46107807] the value was -4%; for `CN1C/C(=C/c2cccc(Br)c2)c2nc3ccccc3c(C(=O)O)c2C1` [Compound Z46114695], -9%. Take `N#Cc1ccc(-c2cc(-c3ccc(Cl)cc3)c3ccccc3n2)cc1` [Compound Z415722774]: the “First screening IR (inhibition rate)” value was determined as 6%. Under `Cc1cnc(CCSc2ncc(-c3ccc(F)cc3)o2)cn1` [Compound Z1688195829] stands 15%; under `FC(F)(F)c1ccnc(Nc2ccc(N3CCCC3)nc2)n1` [Compound Z319012342], -5%.

Turning to `CC(NC(=O)CCc1c[nH]c2ccccc12)c1cc2ccccc2o1` (stereo not shown) [Compound Z91037735], the “First screening IR (inhibition rate)” value stood at 1%.

As for `OCCNc1ncnc2c1c(-c1ccccc1)cn2-c1ccc(F)cc1` [Compound Z57455953], the “First screening IR (inhibition rate)” value is given as -6%. Turning to `Cc1c(N=C2SC(CC(=O)Nc3ccc(F)cc3)C(=O)N2CC2CCCCC2)c(=O)n(-c2ccccc2)n1C` (stereo not shown) [Compound Z56900652], the “First screening IR (inhibition rate)” value was 8%.

Regarding `Cc1nn(CC(C)C)c2sc(C(=O)N3c4ccccc4C[C@H]3C(N)=O)cc12` [Compound Z996487836], the “First screening IR (inhibition rate)” value was determined as 1%. Under `CSc1ccc(C(C)N2CCCC(C(=O)N3CCOCC3)C2)cc1F` (stereo not shown) [Compound Z1742902065] stands 26%; under `CCCCn1c(CN2CCN(c3ncccn3)CC2)nc2c1c(=O)[nH]c(=O)n2Cc1ccccc1` [Compound Z104925552], 9%; under `Cc1ccc(-c2cc(-c3cccc(Br)c3)nc3ccccc23)cc1` [Compound Z1847669462], 0%. As for `O=C(OCCOc1ccccc1Cl)c1cn2ccccc2n1` [Compound Z16593263], the “First screening IR (inhibition rate)” value turned out to be 0%. Under `CCN(CCO)c1nc(-c2ccccn2)nc2scc(-c3ccccc3)c12` [Compound Z31238841] stands 19%.
